Experiments:
Rattus norvegicus [1] = organism: Rattus norvegicus; assay: Biodistribution in rat bone in the presence of NAC Gd/0.01 M GdDTPA-HPDP; assay type: ADME, organism-based, Bone element; settings: in vivo
Rattus norvegicus [2] = organism: Rattus norvegicus; assay: Biodistribution in rat heart in the presence of GdDTPA-BDP at 2 hr; settings: in vivo
Rattus norvegicus [3] = organism: Rattus norvegicus; assay: Biodistribution in rat muscle in the presence of GdDTPA-BDPat 30 min; assay type: ADME, organism-based, Muscle tissue; settings: in vivo, 0.5 h
Rattus norvegicus [4] = organism: Rattus norvegicus; assay: Biodistribution in rat muscle in the presence of GdDTPA-HPDP at 1 hr; assay type: ADME, organism-based, Muscle tissue; settings: in vivo
Rattus norvegicus [5] = organism: Rattus norvegicus; assay: Biodistribution in rat muscle in the presence of GdDTPA-BDP at 4 hr; assay type: ADME, organism-based, Muscle tissue; settings: in vivo
Rattus norvegicus [6] = organism: Rattus norvegicus; assay: Biodistribution in rat blood in the presence of GdDTPA-HPDPat 1 hr; assay type: ADME, organism-based; settings: in vivo
Rattus norvegicus [7] = organism: Rattus norvegicus; assay: Biodistribution in rat muscle in the presence of GdDTPA-HPDPat 30 min; assay type: ADME, organism-based, Muscle tissue; settings: in vivo, 0.5 h
Rattus norvegicus [8] = organism: Rattus norvegicus; assay: Biodistribution in rat blood in the presence of GdDTPA at 4 hr; assay type: ADME, organism-based; settings: in vivo
Rattus norvegicus [9] = organism: Rattus norvegicus; assay: Biodistribution in rat bone in the presence of 0.05 M/0.08 M GdDTPA-HPDP; assay type: ADME, organism-based, Bone element; settings: in vivo
Rattus norvegicus [10] = organism: Rattus norvegicus; assay: Biodistribution in rat liver in the presence of NAC Gd/0.01 M GdDTPA-HPDP; assay type: ADME, organism-based; settings: in vivo
Rattus norvegicus [11] = organism: Rattus norvegicus; assay: Biodistribution in rat muscle in the presence of 0.05 M GdDTPA-BDP; assay type: ADME, organism-based, Muscle tissue; settings: in vivo
Rattus norvegicus [12] = organism: Rattus norvegicus; assay: Biodistribution in rat liver in the presence of GdDTPA at 15 min; assay type: ADME, organism-based; settings: in vivo, 0.25 h
Rattus norvegicus [13] = organism: Rattus norvegicus; assay: Biodistribution in rat heart in the presence of GdDTPA-BDP at 30 min; assay type: ADME, organism-based; settings: in vivo, 0.5 h
Rattus norvegicus [14] = organism: Rattus norvegicus; assay: Biodistribution in rat blood in the presence of 0.10 M GdDTPA-BDP; assay type: ADME, organism-based; settings: in vivo
Rattus norvegicus [15] = organism: Rattus norvegicus; assay: Biodistribution in rat heart in the presence of GdDTPA at 20 min; settings: in vivo, 0.33 h
Rattus norvegicus [16] = organism: Rattus norvegicus; assay: Biodistribution in rat liver in the presence of 0.001 M/0.008 M GdDTPA-AEP; assay type: ADME, organism-based; settings: in vivo
Rattus norvegicus [17] = organism: Rattus norvegicus; assay: Biodistribution in rat heart in the presence of GdDTPA-HPDPat 15 min; assay type: ADME, organism-based; settings: in vivo, 0.25 h
Rattus norvegicus [18] = organism: Rattus norvegicus; assay: Biodistribution in rat heart in the presence of GdDTPA-HPDP at 30 min; assay type: ADME, organism-based; settings: in vivo, 0.5 h
Rattus norvegicus [19] = organism: Rattus norvegicus; assay: Biodistribution in rat kidney in the presence of 0.05 M/0.05 M GdDTPA-AEP; assay type: ADME, organism-based; settings: in vivo
Rattus norvegicus [20] = organism: Rattus norvegicus; assay: Biodistribution in rat bone in the presence of 0.10 M/0.11 M GdDTPA-AEP; assay type: ADME, organism-based, Bone element; settings: in vivo
Rattus norvegicus [21] = organism: Rattus norvegicus; assay: Biodistribution in rat heart in the presence of 0.05 M GdDTPA-BDP; assay type: ADME, organism-based; settings: in vivo
Rattus norvegicus [22] = organism: Rattus norvegicus; assay: Biodistribution in rat muscle in the presence of GdDTPA-HPDP at 4 hr; assay type: ADME, organism-based, Muscle tissue; settings: in vivo
Rattus norvegicus [23] = organism: Rattus norvegicus; assay: Biodistribution in rat liver in the presence of 0.01 M/0.01 M GdDTPA-AEP; assay type: ADME, organism-based; settings: in vivo
Rattus norvegicus [24] = organism: Rattus norvegicus; assay: Biodistribution in rat blood in the presence of GdDTPA at 1 hr; assay type: ADME, organism-based; settings: in vivo
Rattus norvegicus [25] = organism: Rattus norvegicus; assay: Biodistribution in rat liver in the presence of GdDTPA-HPDP at 15 min; assay type: ADME, organism-based; settings: in vivo, 0.25 h
Rattus norvegicus [26] = organism: Rattus norvegicus; assay: Biodistribution in rat muscle in the presence of GdDTPA-BDPat 15 min; assay type: ADME, organism-based, Muscle tissue; settings: in vivo, 0.25 h
Rattus norvegicus [27] = organism: Rattus norvegicus; assay: Biodistribution in rat blood in the presence of GdDTPA-BDP at 4 hr; assay type: ADME, organism-based; settings: in vivo
Rattus norvegicus [28] = organism: Rattus norvegicus; assay: Biodistribution in rat bone in the presence of GdDTPA at 20 min; settings: in vivo, 0.33 h
Rattus norvegicus [29] = organism: Rattus norvegicus; assay: Biodistribution in rat kidney in the presence of 0.10 M GdDTPA-BDP; assay type: ADME, organism-based; settings: in vivo
Rattus norvegicus [30] = organism: Rattus norvegicus; assay: Biodistribution in rat liver in the presence of GdDTPA-HPDP at 1 hr; assay type: ADME, organism-based; settings: in vivo
Rattus norvegicus [31] = organism: Rattus norvegicus; assay: Biodistribution in rat bone in the presence of GdDTPA-HPDP at 1 hr; assay type: ADME, organism-based, Bone element; settings: in vivo
Rattus norvegicus [32] = organism: Rattus norvegicus; assay: Biodistribution in rat bone in the presence of 0.10 M GdDTPA-BDP; assay type: ADME, organism-based, Bone element; settings: in vivo
Rattus norvegicus [33] = organism: Rattus norvegicus; assay: Biodistribution in rat bone in the presence of GdDTPA-BDP at 20 min; settings: in vivo, 0.33 h
Rattus norvegicus [34] = organism: Rattus norvegicus; assay: Biodistribution in rat liver in the presence of GdDTPA-HPDP at 4 hr; assay type: ADME, organism-based; settings: in vivo
Rattus norvegicus [35] = organism: Rattus norvegicus; assay: Biodistribution in rat blood in the presence of NAC Gd/0.01 M GdDTPA-HPDP; assay type: ADME, organism-based; settings: in vivo
Rattus norvegicus [36] = organism: Rattus norvegicus; assay: Biodistribution in rat kidney in the presence of NAC Gd/0.01 M GdDTPA-HPDP; assay type: ADME, organism-based; settings: in vivo
Rattus norvegicus [37] = organism: Rattus norvegicus; assay: Biodistribution in rat liver in the presence of 0.10 M GdDTPA-BDP; assay type: ADME, organism-based; settings: in vivo
Rattus norvegicus [38] = organism: Rattus norvegicus; assay: Biodistribution in rat blood in the presence of 0.05 M/0.08 M GdDTPA-HPDP; assay type: ADME, organism-based; settings: in vivo
Rattus norvegicus [39] = organism: Rattus norvegicus; assay: Biodistribution in rat heart in the presence of 0.001 M/0.008 M GdDTPA-AEP; settings: in vivo
Rattus norvegicus [40] = organism: Rattus norvegicus; assay: Biodistribution in rat blood in the presence of GdDTPA-HPDP at 4 hr; assay type: ADME, organism-based; settings: in vivo
Rattus norvegicus [41] = organism: Rattus norvegicus; assay: Biodistribution in rat liver in the presence of GdDTPA-HPDP at 30 min; assay type: ADME, organism-based; settings: in vivo, 0.5 h
Rattus norvegicus [42] = organism: Rattus norvegicus; assay: Biodistribution in rat blood in the presence of GdDTPA at 30 min; assay type: ADME, organism-based; settings: in vivo, 0.5 h
Rattus norvegicus [43] = organism: Rattus norvegicus; assay: Biodistribution in rat bone in the presence of 0.001 M/0.008 M GdDTPA-AEP; settings: in vivo
Rattus norvegicus [44] = organism: Rattus norvegicus; assay: Biodistribution in rat muscle in the presence of 0.01 M GdDTPA-BDP; assay type: ADME, organism-based, Muscle tissue; settings: in vivo
Rattus norvegicus [45] = organism: Rattus norvegicus; assay: Biodistribution in rat heart in the presence of GdDTPA-HPDP at 4 hr; assay type: ADME, organism-based; settings: in vivo
Rattus norvegicus [46] = organism: Rattus norvegicus; assay: Biodistribution in rat blood in the presence of 0.05 M GdDTPA-BDP; assay type: ADME, organism-based; settings: in vivo

O=C(O)CN(CCN(CC(=O)O)CC(=O)O)CCN(CC(=O)O)CC(=O)O [PENTETIC ACID]
ID/organ (Rattus norvegicus [1]): 65.7%
ID/organ (Rattus norvegicus [2]): 0.048%
ID/organ (Rattus norvegicus [3]): 5.17%
ID/organ (Rattus norvegicus [4]): 0.889%
ID/organ (Rattus norvegicus [5]): 4.5%
ID/organ (Rattus norvegicus [6]): 0.543%
ID/organ (Rattus norvegicus [7]): 4.09%
ID/organ (Rattus norvegicus [8]): 0.005%
ID/organ (Rattus norvegicus [9]): 17.6%
ID/organ (Rattus norvegicus [10]): 0.082%
ID/organ (Rattus norvegicus [11]): 4.47%
ID/organ (Rattus norvegicus [12]): 1.59%
ID/organ (Rattus norvegicus [13]): 17.6%
ID/organ (Rattus norvegicus [14]): 1.62%
ID/organ (Rattus norvegicus [15]): 0.097%
ID/organ (Rattus norvegicus [16]): 0.239%
ID/organ (Rattus norvegicus [17]): 0.081%
ID/organ (Rattus norvegicus [18]): 0.04%
ID/organ (Rattus norvegicus [19]): 0.264%
ID/organ (Rattus norvegicus [20]): 16.4%
ID/organ (Rattus norvegicus [21]): 0.048%
ID/organ (Rattus norvegicus [22]): 0.223%
ID/organ (Rattus norvegicus [23]): 18.3%
ID/organ (Rattus norvegicus [24]): 0.094%
ID/organ (Rattus norvegicus [25]): 0.745%
ID/organ (Rattus norvegicus [26]): 8.97%
ID/organ (Rattus norvegicus [27]): 2.26%
ID/organ (Rattus norvegicus [28]): 3.5%
ID/organ (Rattus norvegicus [29]): 0.29%
ID/organ (Rattus norvegicus [30]): 0.201%
ID/organ (Rattus norvegicus [31]): 20%
ID/organ (Rattus norvegicus [32]): 13.3%
ID/organ (Rattus norvegicus [33]): 11%
ID/organ (Rattus norvegicus [34]): 0.202%
ID/organ (Rattus norvegicus [35]): 0.26%
ID/organ (Rattus norvegicus [36]): 0.273%
ID/organ (Rattus norvegicus [37]): 0.795%
ID/organ (Rattus norvegicus [38]): 0.27%
ID/organ (Rattus norvegicus [39]): 0.004%
ID/organ (Rattus norvegicus [40]): 0.068%
ID/organ (Rattus norvegicus [41]): 0.519%
ID/organ (Rattus norvegicus [42]): 1.02%
ID/organ (Rattus norvegicus [43]): 0.264%
ID/organ (Rattus norvegicus [44]): 4.38%
ID/organ (Rattus norvegicus [45]): 0.003%
ID/organ (Rattus norvegicus [46]): 2.53%
